≈ marks a conversion by molar mass, not a printed value.
Columns and labels:
[1] = test system: Pseudopestalotiopsis theae; assay: Antifungal activity against Pestalotiopsis theae assessed as fungal cell growth inhibition; type: functional; conditions: read-out: ED50 (the source's name)
[2] = biological target: Phosphotyrosine-protein phosphatase PTPB (Mycobacterium tuberculosis, UniProt P96830); assay: Inhibition of N-terminal His6-tagged Mycobacterium tuberculosis H37Rv PTPB using 6,8-difluoromethylumbelliferyl phosphate as substrate incubated for 30 mins by fluorescence based analysis
[3] = test system: RAW264.7; assay: Antiinflammatory activity against LPS-induced mouse RAW264.7 cells assessed as inhibition of NO production measured after 24 hrs […]; type: functional, cell-based; conditions: RAW264.7, 24 h
[4] = test system: MCF7; assay: Cytotoxicity against human MCF7 cells assessed as cell growth inhibition; type: functional, cell-based
[5] = test system: NCI-H460; assay: Cytotoxicity against human NCI-H460 cells assessed as cell growth inhibition; type: functional, cell-based
[6] = test system: SF-268; assay: Cytotoxicity against human SF-268 cells assessed as cell growth inhibition; type: functional, cell-based
[7] = test system: HeLa; assay: Cytotoxicity against human HeLa cells assessed as cell growth inhibition measured after 48 hrs by WST-8 assay; type: functional, cell-based
[8] = Cytotoxicity against human ACC-MESO-1 cells assessed as cell growth inhibition measured after 48 hrs by WST-8 assay; type: functional, cell-based; conditions: ACC-MESO-1, 48 h
[9] = test system: NCI-H2122; assay: Cytotoxicity against human NCI-H2122 cells assessed as cell growth inhibition measured after 96 hrs by CellTiter-Glo assay; type: functional, cell-based; conditions: NCI-H2122, 96 h
[10] = Cytotoxicity against human HCC366 cells assessed as cell growth inhibition measured after 96 hrs by CellTiter-Glo assay; type: functional, cell-based; conditions: HCC366, 96 h
[11] = test system: Influenza A virus; assay: Antiviral activity against Influenza A virus H1N1 by CPE inhibition assay; type: functional, organism-based
[12] = test system: K562; assay: Cytotoxicity against human K562 cells assessed as inhibition of cell growth by MTT assay; type: functional, cell-based
[13] = test system: Candida albicans; assay: Antifungal activity against Candida albicans MTCC 227 assessed as cell growth inhibition measured after 48 to 72 hrs; type: functional; conditions: time 48-72 hrs
[14] = test system: Aspergillus niger; assay: Antifungal activity against Aspergillus niger MTCC 282 assessed as cell growth inhibition measured after 48 to 72 hrs; type: functional; conditions: time 48-72 hrs
[15] = test system: Saccharomyces cerevisiae; assay: Antifungal activity against Saccharomyces cerevisiae MTCC 170 assessed as cell growth inhibition measured after 48 to 72 hrs; type: functional; conditions: time 48-72 hrs
[16] = Antioxidant activity assessed as DPPH radical scavenging activity incubated for 30 mins by […] assay; type: functional
[17] = test system: NCI-H1975; assay: Cytotoxicity against human NCI-H1975 cells assessed as cell growth inhibition measured after 72 hrs by MTT assay; type: functional, cell-based; conditions: NCI-H1975, 72 h
[18] = test system: HL-60; assay: Cytotoxicity against human HL-60 cells assessed as cell growth inhibition measured after 72 hrs by MTT assay; type: functional, cell-based; conditions: HL-60, 72 h
[19] = test system: Staphylococcus aureus; assay: Antibacterial activity against Staphylococcus aureus assessed as bacterial growth inhibition measured after 24 hrs by optical density based analysis; type: functional
[20] = test system: Limimaricola hongkongensis; assay: Antibacterial activity against Limimaricola hongkongensis assessed as bacterial growth inhibition measured after 24 hrs by optical density based analysis; type: functional
[21] = test system: P388; assay: Cytotoxicity against mouse P388 cells assessed as cell growth inhibition by MTT assay; type: functional, cell-based
[22] = test system: HL-60; assay: Antiproliferative activity against human HL-60 cells assessed as cell growth inhibition by MTT assay; type: functional, cell-based
[23] = biological target: Rho-associated protein kinase 2 (Homo sapiens, UniProt O75116); assay: Inhibition of ROCK2 (unknown origin) by HTRF kinase assay
[24] = test system: Meloidogyne incognita; assay: Nematicidal activity against Meloidogyne incognita; type: functional; conditions: read-out: LD50 (the source's name)
[25] = test system: Meloidogyne javanica; assay: Nematicidal activity against Meloidogyne javanica; type: functional; conditions: read-out: LD50 (the source's name)
[26] = test system: Leishmania donovani; assay: Antileishmanial activity against Leishmania donovani D10 promastigotes assessed as parasite growth inhibition incubated for 24 hrs by alamar blue staining based analysis; type: functional, organism-based; conditions: D10, 24 h
[27] = test system: Trypanosoma brucei brucei; assay: Antitrypanosomal activity against Trypanosoma brucei brucei GUTat3.1 assessed as parasite growth inhibition measured after 24 hrs by alamar blue staining based analysis; type: functional, organism-based; conditions: GUTat3.1, 24 h
[28] = test system: Leishmania major; assay: Antileishmanial activity against Leishmania major NR48815 promastigotes assessed as parasite growth inhibition incubated for 24 hrs by alamar blue staining based analysis; type: functional, organism-based; conditions: NR48815, 24 h
[29] = test system: Plasmodium falciparum; assay: Antiplasmodial activity against Plasmodium falciparum 3D7 infected in human erythrocyte assessed as intraerythrocytic growth inhibition measured after 24 hrs by alamar blue staining based analysis; type: functional, organism-based; conditions: 3D7, Erythrocyte
[30] = test system: Trypanosoma brucei brucei; assay: Antitrypanosomal activity against Trypanosoma brucei brucei GUTat3.1 assessed as parasite growth inhibition measured after 72 hrs by alamar blue staining based analysis; type: functional, organism-based; conditions: GUTat3.1, 72 h
[31] = Cytotoxicity against human ACC-MESO-1 cells assessed as cell growth inhibition by MTT assay; type: functional, cell-based
[32] = test system: HeLa; assay: Cytotoxicity against human HeLa cells assessed as cell growth inhibition by MTT assay; type: functional, cell-based
[33] = test system: Colletotrichum gloeosporioides; assay: Antifungal activity against Colletotrichum gloeosporioides assessed as inhibition of fungal growth measured after 72 hrs by micro plate reader analysis; type: functional
[34] = test system: LOX IMVI; assay: Cytotoxicity against human LOX IMVI cells assessed as cell growth inhibition; type: functional
[35] = test system: HCT-116; assay: Cytotoxicity against human HCT-116 cells assessed as cell growth inhibition; type: functional
[36] = test system: PC-3; assay: Cytotoxicity against human PC-3 cells assessed as cell growth inhibition; type: functional
[37] = test system: OVCAR-3; assay: Cytotoxicity against human OVCAR-3 cells assessed as cell growth inhibition; type: functional
[38] = test system: HOP-92; assay: Cytotoxicity against human HOP-92 cells assessed as cell growth inhibition; type: functional
[39] = test system: Proteus vulgaris; assay: Antibacterial activity against Proteus vulgaris MTCC 7299 assessed as bacterial growth inhibition incubated for 48 to 72 hrs by agar plate diffusion assay; type: functional; conditions: time 48-72 hrs

Chain of Phosphotyrosine-protein phosphatase PTPB (P96830 whole entry): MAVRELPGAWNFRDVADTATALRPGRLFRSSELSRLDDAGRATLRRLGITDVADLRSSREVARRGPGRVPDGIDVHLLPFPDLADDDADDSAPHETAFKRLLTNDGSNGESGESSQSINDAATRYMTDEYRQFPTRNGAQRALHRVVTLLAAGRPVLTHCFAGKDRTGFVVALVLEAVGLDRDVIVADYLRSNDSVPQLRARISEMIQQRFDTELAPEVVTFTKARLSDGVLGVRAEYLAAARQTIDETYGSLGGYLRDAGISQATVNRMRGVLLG
Chain of Rho-associated protein kinase 2 (O75116 whole entry): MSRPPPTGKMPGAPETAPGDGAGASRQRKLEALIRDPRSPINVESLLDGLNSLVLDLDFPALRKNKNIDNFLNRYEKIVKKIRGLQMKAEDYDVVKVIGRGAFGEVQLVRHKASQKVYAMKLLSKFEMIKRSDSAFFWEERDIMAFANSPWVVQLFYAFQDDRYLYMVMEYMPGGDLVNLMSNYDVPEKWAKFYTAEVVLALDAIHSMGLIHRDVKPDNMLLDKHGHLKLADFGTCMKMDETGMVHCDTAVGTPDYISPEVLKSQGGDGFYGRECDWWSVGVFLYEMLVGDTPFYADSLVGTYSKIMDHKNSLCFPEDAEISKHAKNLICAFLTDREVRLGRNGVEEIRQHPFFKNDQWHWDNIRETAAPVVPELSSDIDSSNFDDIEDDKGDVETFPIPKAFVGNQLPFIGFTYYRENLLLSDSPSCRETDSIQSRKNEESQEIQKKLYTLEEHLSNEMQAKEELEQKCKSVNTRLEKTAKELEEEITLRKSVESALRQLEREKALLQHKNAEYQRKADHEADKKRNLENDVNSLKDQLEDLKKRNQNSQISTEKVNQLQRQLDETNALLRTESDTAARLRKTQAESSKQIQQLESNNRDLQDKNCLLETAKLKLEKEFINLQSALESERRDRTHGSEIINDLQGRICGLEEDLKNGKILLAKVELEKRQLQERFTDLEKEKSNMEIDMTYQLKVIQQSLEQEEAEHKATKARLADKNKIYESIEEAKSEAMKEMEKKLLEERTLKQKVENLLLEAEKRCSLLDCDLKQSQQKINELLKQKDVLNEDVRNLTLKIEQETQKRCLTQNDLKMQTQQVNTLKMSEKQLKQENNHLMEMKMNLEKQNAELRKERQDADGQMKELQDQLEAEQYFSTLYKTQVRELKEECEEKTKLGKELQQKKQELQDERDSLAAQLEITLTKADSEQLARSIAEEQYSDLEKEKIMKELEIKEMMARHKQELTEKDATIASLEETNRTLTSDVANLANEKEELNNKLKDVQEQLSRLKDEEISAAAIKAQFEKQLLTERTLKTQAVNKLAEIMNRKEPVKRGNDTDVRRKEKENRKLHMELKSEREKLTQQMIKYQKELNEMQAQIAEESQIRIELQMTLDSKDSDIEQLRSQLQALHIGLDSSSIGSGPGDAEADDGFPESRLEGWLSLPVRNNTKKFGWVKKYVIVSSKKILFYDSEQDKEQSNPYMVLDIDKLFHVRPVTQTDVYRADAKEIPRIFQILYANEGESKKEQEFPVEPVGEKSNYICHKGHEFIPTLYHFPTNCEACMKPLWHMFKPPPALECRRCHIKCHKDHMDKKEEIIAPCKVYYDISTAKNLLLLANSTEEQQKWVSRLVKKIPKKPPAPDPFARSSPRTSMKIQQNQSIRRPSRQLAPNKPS

## CC(=C\C(=O)O)/C=C(\C)CCCCCC[C@H]1OC(=O)[C@@H]1CO
[1]
  EC50: 42.3 µg/mL (≈ 136 µM)

## CC(C)[C@@H](C)/C=C\[C@@H](C)[C@@]1(C)C[C@H]2C3=C4[C@@H](C=C5C[C@@H](O)CC[C@]5(C)[C@H]4CC[C@@]31C)[C@H](C(=O)O)[C@H]2C(=O)O
[2]
  IC50: 30.1 µM
[3]
  IC50: 3.6 µM

## CC(C)[C@@H](C)/C=C/[C@@H](C)[C@H]1CC[C@H]2C3=CC(=O)N(CCO)C3=CC[C@]12C
[4]
  IC50: 7.5 µg/mL (≈ 21 µM)
[5]
  IC50: 7.8 µg/mL (≈ 21.8 µM)
[6]
  IC50: 7.9 µg/mL (≈ 22.1 µM)

## O=C1CCC(=O)O[C@@H]2[C@@H](O)[C@H](O)[C@@H](COC(=O)CCC(=O)O[C@@H]3[C@@H](O)[C@H](O)[C@@H](CO1)O[C@@H]3O)O[C@@H]2O
[7]
  IC50: 37 µM
[8]
  IC50: 48 µM

## COc1cc2nc(C(=O)NCC(=O)O)sc2c(C/C=C(\C)CC/C=C(\C)CC/C=C(\C)CCC/C(C)=C\CC(=O)O)c1O
[9]
  IC50: 2.5 µM
[10]
  IC50: 6.8 µM

## CC[C@@H](C)C1=C2NC(=O)[C@@](O)(C/C(=C\C=O)OC)C(=O)N2[C@H](C(C)C)C(=O)N1
[11]
  IC50: 50 µM

## C[C@@H]1OC(=O)[C@@H](O)[C@@H](C)OC(=O)[C@H](C)[C@H]1O
[12]
  IC50: 1.36 µM

## C=CCOc1ccccc1O [1-hydroxy-2-allyloxybenzene]
[13]
  MIC: 200 µg/mL (≈ 1330 µM)
[14]
  MIC: 200 µg/mL (≈ 1330 µM)
[15]
  MIC: 200 µg/mL (≈ 1330 µM)
[16]
  IC50: 22 µg/mL (≈ 146 µM)

## C/C=C/C1=CC(=O)[C@]2(C(=O)c3c(OC)cc(OC)cc3C(=O)OC)O[C@@H]2O1
[17]
  IC50: 3.7 µM
[18]
  IC50: 3.7 µM

## CC(O)[C@H](NC(=O)c1cccc(NC=O)c1O)C(=O)O[C@@H](C)[C@H](OC(=O)Cc1ccccc1)[C@@H](C)C(=O)O (some centres undefined)
[19]
  MIC: 32 µg/mL (≈ 60.3 µM)
[20]
  MIC: 8 µg/mL (≈ 15.1 µM)

## C=CC(C)(C)c1[nH]c2ccccc2c1/C=C1\NC(=O)C2(CC(C)C=CC2CCc2c(O)cc(CC=C(C)C)c(O)c2C=O)NC1=O (centres undefined)
[21]
  IC50: 1.83 µM
[22]
  IC50: 4.8 µM

## CCOC(=O)[C@H](Cc1c(O)cc(C)c2c(O)c3c(cc12)[C@@H](O)CCC3=O)C(=O)OC
[23]
  IC50: 0.96 µM

## CCCCCC[C@@H](O)[C@@H]1C(=O)O[C@H](C)[C@@H](O)/C=C/C=C/C=C/C=C/C=C(\C)[C@@H](O)[C@H](O)[C@@H](O)C[C@H](O)C[C@H](O)C[C@@H](O)C[C@@H](O)C[C@@H]1O
[24]
  LC50: 7.64 µg/mL (≈ 11.2 µM)
[25]
  LC50: 7.83 µg/mL (≈ 11.4 µM)

## Cc1c(C)[n+](CCC(C)C)c(-c2n(CCc3ccccc3)c(C)c(C)[n+]2CCC(C)C)n1CCc1ccccc1
[26]
  IC50: 0.75 µM
[27]
  IC50: 0.78 µM
[28]
  IC50: 7.02 µM
[29]
  IC50: 9.08 µM

## CCCC1C(O)=C2CCC3(C)CC(C)C(O3)C(C)C(O)C(C)C(=O)CC1OC2=O (centres undefined)
[30]
  IC50: 2.4 µg/mL (≈ 5.87 µM)

## CC(/C=C/C1CC1)=C\[C@@H]1[C@@H](OC(=O)CC(C)C)[C@](C)(O)[C@@H]2[C@H]3O[C@H]3CCN12
[31]
  IC50: 39 µM
[32]
  IC50: 29 µM

## CC(=O)O[C@@H]1C[C@H](C)[C@@]23CC=C(C)[C@H](C2)C[C@@](C)(O)[C@@H]13
[33]
  MIC: 0.125 µg/mL (≈ 0.449 µM)

## C[C@@]12OC(=O)[C@]1([C@@H](O)[C@@H]1C=CCCC1)NC(=O)[C@@H]2CCCl [MARIZOMIB]
[34]
  GI50: < 0.011 µM
[35]
  GI50: 0.035 µM
[36]
  GI50: < 0.011 µM
[37]
  GI50: < 0.011 µM
[38]
  GI50: < 0.011 µM

## CCCOC(=O)c1ccccc1C(=O)OC(C)CC (centres undefined)
[39]
  MIC: 4 µg/mL (≈ 15.1 µM)
